Experimental data as given in US8012993B2, “Stable S-nitrosothiols, method of synthesis and use” (Lacer, S.A., priority 2006, dated 2011).

Tests used:
[1] = Stability study: storage in closed borosilicate glass vial, HPLC analysis; assay type: physicochemical
arterial thrombosis = assay: Rat arterial thrombosis model (ferric chloride, carotid artery); assay type: in vivo, male Wistar rats; details: i.v. infusion for 30 minutes
Description: The activity of the products was assessed in experimental animals in accordance with the European Community Standards on the Care and Use of Laboratory Animals and approved by the Animal Care and Use Committee of local authorities. Two experimental models to test antithrombotic activity in rats were used: Arterio-Venous Shunt and Ferric chloride arterial thrombosis model. Additionally, the effect of the products on the systemic blood pressure was investigated. Fasted male Wistar rats (300-320 g; Janvier, Le Genest St. Isle, France) were anesthetized with sodium pentobarbital (60 mg/kg i.p.) and thermoregulated by use of blankets (Biosis homeothermic blanket control unit; Biosis, Spain). A segment (approximately 1-cm long) of the left carotid artery was exposed and fitted at the distal end with an appropriately sized Doppler flow probe. Thrombosis was induced by applying a 70% ferric chloride solution embedded patch onto the artery. Blood flow velocity was measured using a Doppler flowmeter (Transonic Systems, San Diego, Calif.) and data recorded using a system for acquisition of data (Acqk). Blood flow was recorded for 60 min post-lesion. When the flow declined to zero, the time in minutes to thrombus formation was noted. The protocol followed was originally described by Feuerstein G Z, et al Artherioscler. Thromb. Vasc. Biol. 1999, 19: 2554-2562 and modified by Kurz K D, et al Thromb. Res. 1990, 60:269-280. The number of animals presenting no occlusion 30 min post-lesion were also noted. Products were dissolved in saline and were given as an i.v. infusion for 30 minutes. ED50 for each product was calculated and results are shown in Table 1 • Anti-thrombotic effect of compounds compared with reference compound in rat arterial thrombosis model after i.v. administration for 30 minutes.

[2] = test system: thrombus in arterio-venous shunt; assay: Rat arterio-venous shunt silk thread model; assay type: in vivo, male Wistar rats; details: rat AV shunt, perfusion 60 minutes
Description: The activity of the products was assessed in experimental animals in accordance with the European Community Standards on the Care and Use of Laboratory Animals and approved by the Animal Care and Use Committee of local authorities. Two experimental models to test antithrombotic activity in rats were used: Arterio-Venous Shunt and Ferric chloride arterial thrombosis model. Additionally, the effect of the products on the systemic blood pressure was investigated. Fasted male Wistar rats (300-320 g; Janvier, Le Genest St. Isle, France) were anesthetized with sodium pentobarbitone (60 mg/kg i.p.). An arterio-venous (AV) shunt was prepared according to the technique of Umetsu and Sanai (1978). Two 12 cm-long polyethylene tubes (0.85- and 1.27-mm i.d. and o.d., respectively) linked to a central part (6 cm-long; 1.14-mm i.d.) containing a 5-cm cotton thread and filled with […]) saline solution were placed between the right carotid artery and the left jugular vein. All products were given i.v through the jugular vein for 60 minutes. Shunt was placed 45 minutes after the initiation of the perfusion with the testing substances and removed at the end of the perfusion i.e. after 15 min of blood circulation. Cotton thread supporting the thrombus was extracted.

systemic blood pressure = assay: Effect of nitrosothiols on systemic blood pressure; assay type: in vivo, male Wistar rats; details: for Mean arterial pressure, Basal: before initiation of the treatment
Description: Fasted male Wistar rats (300-320 g; Janvier, Le Genest St. Isle, France) were anesthetized with sodium pentobarbitone (60 mg/kg i.p.). The effect of treatments on systemic blood pressure was tested. Products dissolved in saline solution and were infused intravenously for 30 minutes at 0.5 ml/h. […] Basal blood pressure was measured before initiation of the treatment and was recorded throughout the treatment period using a pressure transducer connected to the carotid artery. The change in blood pressure was expressed as a % of change vs. basal values.

intraocular pressure = assay: Alfa-chymotrypsin-induced glaucoma, intraocular pressure; assay type: in vivo; details: glaucoma rabbits; for intraocular pressure, 0 hr / intraocular pressure, 1 hr / intraocular pressure, 2 hr: 3 drops instillation
Description: The method used was that described by Gabriele Campana, Claudio Bucolo, Giovanna Murari and Santi Spampinato in Pharmacol. Exp Therap Vol. 303, Issue 3, 1086-1094, December 2002
Animals were injected with intra muscular injection of dexamethasone at the dose rate of 10 mg/Kg body weight, to avoid immediate inflammation. Animals were anesthetized with ketamine (50 mg/kg IV) in combination with Dizepam.
Xylocalne (4%) was used for local anesthesia topically. A cannula attached to reservoir was inserted into the anterior chamber with the help of a 30 gauge needle to provide a hydrostatic pressure of 25 mmHg during injection of alpha-chymotrypsin. Then a second appropriately shaped 30 gauge needle was introduced near the pupil. Freshly prepared 150 units of alpha chymotrypsin prepared in 0.1 ml of sterile saline was irrigated through the cannula into the posterior chamber. Care was taken to prevent the contact of alpha chymotrypsin with corneal stroma. Both cannulas were carefully removed without significant loss of aqueous humor. Immediately after surgery the eye treated with Sofracort (Corticosteroid) to reduce the chances of fungal or microbial infection.
All the animals were kept under observation for 5 days and after these five days the intraocular pressure (IOP) was measured daily with a Schiontz type indentation tonometer using 5.5 gm weights and by compilation of readings the maximum period required to achieve a stable increase in IOP was determined. […] IOP was measured after 15 days for 3 consecutive days, every morning (at same time) to assure stable IOP.
All the animals were closely observed for the development of glaucoma. Thirty animals showing the symptoms of glaucoma and with the intra ocular pressure more than 30 mmHg were selected for the present investigation.
Compound (R,S)-4-(Acetylamino-ethoxycarbonyl-methyl)-1-methyl-4-S-nitroso-mercapto-piperidinium chloride (example 1g) was administered to a group of rabbits at a concentration of 0.05% by weight [0.05 g in 100 mL of saline serum] by 3 drops instillation. For comparative data, the compound Timolol (Timoftol®) widely used for the treatment of glaucoma, was also administered to another group of rabbits at a concentration of 0.5% by weight.
The intraocular pressure measurements are included in the table 2 in mm Hg taken at 0, 1 and 2 h after 3 drops instillation.

[3] = at 4° C., closed glass vial, no longer stable when it loses more than 5% of initial purity (HPLC)
[4] = at 25° C., closed glass vial, no longer stable when it loses more than 5% of initial purity (HPLC)
[5] = anesthetized rat, i.v. infusion 30 min, dose 100 times the antithrombotic ED50
[6] = change vs. basal after 30 min i.v. infusion, dose 100 times the antithrombotic ED50

| Structure (SMILES) | time the compound was stable [1, 3] | time the compound was stable [1, 4] | ED50 (anti-thrombotic effect) (arterial thrombosis) | Mean arterial pressure, Basal (systemic blood pressure; anesthetized rat) [mm Hg] | Mean arterial pressure, After 30 min infusion (systemic blood pressure; [5]) [mm Hg] | Mean arterial pressure, Change (systemic blood pressure; [6]) [%] | other results |
| --- | --- | --- | --- | --- | --- | --- | --- |
| CCOC(=O)[C@@H](NS(=O)(=O)c1ccccc1)C1(SN=O)CCN(C)CC1.Cl (racemic) [Example 7 (hydrochloride salt), (R,S)-4-(Benzenesulfonylamino-ethoxycarbonyl-methyl)-1-methyl-4-S-nitrosomercapto-piperidinium chloride] | > 6 months | at least 4 months | 56.4 μg/kg, i.v. | 117.9 ± 10.2 |  |  | Antithrombotic protection ([2]; dose 10.4 μg/kg i.v.): 60%; Mean arterial pressure, Change (systemic blood pressure; rat, in vivo): +0.8%; Mean arterial pressure, After 30 min infusion (systemic blood pressure; rat, in vivo, iv): 118.8 ± 11.1 mm Hg |
| CC(C)(C)NC[C@H](O)COc1nsnc1N1CCOCC1 [Timolol, reference compound] |  |  |  |  |  |  | intraocular pressure, 0 hr (intraocular pressure; 0.5% by weight): 34.45 ± 0.58 mm Hg; intraocular pressure, 1 hr (intraocular pressure; 0.5% by weight): 24.77 ± 0.26 mm Hg; intraocular pressure, 2 hr (intraocular pressure; 0.5% by weight): 24.54 ± 0.26 mm Hg |
| CC(=O)NC(C(=O)O)C1(SN=O)CCN(C)CC1 (stereo not drawn) [example 2 of EP 1157987, N-acetyl-2-amino-2[4-(4-S-nitrosomercapto-1-methylpiperidin)]acetic acid, reference compound] |  |  | 4.1 μg/kg, i.v. |  | 95.1 ± 2.4 |  | Antithrombotic protection ([2]; dose 1.7 μg/kg i.v.): 61% |
| CCOC(=O)C(NC(C)=O)C1(SN=O)CCN(C)CC1.Cl (racemic) [Example 1g, (R,S)-4-(Acetylamino-ethoxycarbonyl-methyl)-1-methyl-4-S-nitrosomercapto-piperidinium chloride] | more than 10 months | 2.5 months | 9.1 μg/kg, i.v. | 115.7 ± 8.3 | 113.6 ± 9.2 | −1.8 | Antithrombotic protection ([2]; dose 2.0 μg/kg i.v.): 54%; intraocular pressure, 0 hr (intraocular pressure; 0.05% by weight in saline): 34.33 ± 0.68 mm Hg; intraocular pressure, 1 hr (intraocular pressure; 0.05% by weight in saline): 24.72 ± 0.47 mm Hg; intraocular pressure, 2 hr (intraocular pressure; 0.05% by weight in saline): 23.86 ± 0.32 mm Hg; effect on intraocular pressure (in words) (intraocular pressure; 0.05%, 10-fold lower concentration than Timolol): significantly reduces the intraocular pressure |
| N[C@@H](CCC(=O)N[C@@H](CSN=O)C(=O)NCC(=O)O)C(=O)O [GSNO, S-nitrosoglutathione, reference compound] |  |  | 18.1 μg/kg, i.v. | 112.2 ± 6.2 | 98.8 ± 4.1 | −12.0 | time the compound was stable ([1]; at 25° C., prior art S-nitrothiol compounds, loss of more than 5% of initial purity): 1 days; Antithrombotic protection ([2]; dose 4.0 μg/kg i.v.): 58% |
